Measurements taken from patent US20120101100A1 (priority 2008, published 2012).

Target: S. aureus GyrB ATPase (Staphylococcus aureus, UniProt P0A0K8)
Experiment: S. aureus (SAU) GyrB ATPase inhibition, malachite green phosphate detection (E. coli GyrA + S. aureus GyrB)
Assay type: biochemical
Conditions: compound concentration of 1.0 μM unless otherwise noted; average value where assay was carried out more than once; read-out: S. aureus (SAU) GyrB ATPase % Inhibition
Method in brief: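 Phosphate from ATP hydrolysis (500 μM ATP) read as malachite green/molybdate absorbance at 650 nm after acid quench. Reaction: 1.25 nM S. aureus GyrB plus 1.25 nM E. coli GyrA, sheared DNA, Hepes pH 7.5 with Mg2+. IC50 fitted over 10 concentrations, normalised to DMSO (2%) and novobiocin (2 μM) controls.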

S. aureus GyrB ATPase, sequence (P0A0K8 whole entry): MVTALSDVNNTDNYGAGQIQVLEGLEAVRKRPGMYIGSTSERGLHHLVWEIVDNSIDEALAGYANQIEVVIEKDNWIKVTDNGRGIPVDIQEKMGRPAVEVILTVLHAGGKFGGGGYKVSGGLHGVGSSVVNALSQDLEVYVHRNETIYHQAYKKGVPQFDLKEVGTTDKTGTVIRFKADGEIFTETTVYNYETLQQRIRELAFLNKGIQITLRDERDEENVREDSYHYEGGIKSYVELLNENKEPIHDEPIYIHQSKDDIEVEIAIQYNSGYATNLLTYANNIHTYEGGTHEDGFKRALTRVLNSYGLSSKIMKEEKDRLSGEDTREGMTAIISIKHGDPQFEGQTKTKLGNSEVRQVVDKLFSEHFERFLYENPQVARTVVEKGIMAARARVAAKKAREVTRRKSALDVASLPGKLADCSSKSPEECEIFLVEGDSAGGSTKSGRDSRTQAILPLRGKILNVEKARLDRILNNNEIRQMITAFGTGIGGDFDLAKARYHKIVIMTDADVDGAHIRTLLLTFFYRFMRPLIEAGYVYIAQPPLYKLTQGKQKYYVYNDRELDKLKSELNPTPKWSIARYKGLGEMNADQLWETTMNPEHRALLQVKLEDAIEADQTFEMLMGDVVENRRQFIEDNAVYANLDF
S. aureus GyrB ATPase, sequence (P0AES4 whole entry, further chain): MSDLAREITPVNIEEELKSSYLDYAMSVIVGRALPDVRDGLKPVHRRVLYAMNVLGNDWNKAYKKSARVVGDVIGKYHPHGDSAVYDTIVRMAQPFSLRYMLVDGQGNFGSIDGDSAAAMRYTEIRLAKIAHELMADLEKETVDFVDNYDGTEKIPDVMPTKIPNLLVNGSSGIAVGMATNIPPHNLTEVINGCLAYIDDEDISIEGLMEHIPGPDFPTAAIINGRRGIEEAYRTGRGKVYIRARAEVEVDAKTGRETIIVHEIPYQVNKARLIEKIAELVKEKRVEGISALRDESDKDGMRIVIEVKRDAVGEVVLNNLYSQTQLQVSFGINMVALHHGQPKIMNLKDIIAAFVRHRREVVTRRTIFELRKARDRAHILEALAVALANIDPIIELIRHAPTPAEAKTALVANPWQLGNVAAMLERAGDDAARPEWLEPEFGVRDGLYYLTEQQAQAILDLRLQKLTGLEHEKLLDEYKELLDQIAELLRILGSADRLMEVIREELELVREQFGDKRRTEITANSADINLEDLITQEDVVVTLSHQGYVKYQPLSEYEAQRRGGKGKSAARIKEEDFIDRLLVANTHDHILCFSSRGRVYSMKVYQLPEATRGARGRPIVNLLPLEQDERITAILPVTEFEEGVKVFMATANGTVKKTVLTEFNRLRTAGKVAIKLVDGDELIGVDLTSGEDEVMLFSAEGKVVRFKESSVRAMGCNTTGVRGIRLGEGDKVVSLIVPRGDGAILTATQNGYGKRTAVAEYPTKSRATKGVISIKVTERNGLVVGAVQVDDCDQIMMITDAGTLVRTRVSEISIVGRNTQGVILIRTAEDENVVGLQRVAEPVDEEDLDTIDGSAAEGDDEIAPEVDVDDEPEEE

SMILES	inhibition at 1 µM [%]
CCNC(=O)Nc1cc(-c2nc(C(F)(F)F)cs2)c(-c2cc(-c3n[nH]c(=O)o3)cnc2OC2CCCCC2)cn1 [Example 214]	109
CCNC(=O)Nc1cc(-c2nc(C(F)(F)F)cs2)c(-c2cc(-c3n[nH]c(=O)o3)cnc2OC2CCN(C)CC2)cn1 [Example 215]	96
CCNC(=O)Nc1cc(-c2nc(C(F)(F)F)cs2)c(-c2cc(-c3n[nH]c(=O)o3)cnc2OCC2CC2)cn1 [Example 216]	96
CCNC(=O)Nc1cc(-c2nc(C(F)(F)F)cs2)c(-c2cc(-c3n[nH]c(=O)o3)cnc2OC2CCCC2)cn1 [Example 217]	95
CCNC(=O)Nc1cc(-c2nc(C(F)(F)F)cs2)c(-c2cc(-c3n[nH]c(=O)o3)cnc2OC2CC(C)(C)N(C)C(C)(C)C2)cn1 [Example 218]	99
CCNC(=O)Nc1cc(-c2nc(C(F)(F)F)cs2)c(-c2cc(-c3n[nH]c(=O)o3)cnc2OC2CCN(C(C)C)CC2)cn1 [Example 219]	97
CCNC(=O)Nc1cc(-c2nc(C(F)(F)F)cs2)c(-c2cc(-c3n[nH]c(=O)o3)cnc2OCCCC2CCCC2)cn1 [Example 220]	91
CCNC(=O)Nc1cc(-c2nc(-c3cnn(C)c3)cs2)c(-c2cc(-c3n[nH]c(=O)o3)cnc2OCC2CC2)cn1 [Example 221]	99
CCNC(=O)Nc1cc(-c2nc(-c3cnn(C)c3)cs2)c(-c2cc(-c3n[nH]c(=O)o3)cnc2OC2CCOCC2)cn1 [Example 222]	97
CCNC(=O)Nc1cc(-c2nc(C(F)(F)F)cs2)c(-c2cc(-c3n[nH]c(=O)o3)cnc2OCC2CCN(C)CC2)cn1 [Example 223]	95
CCNC(=O)Nc1cc(-c2nc(C(F)(F)F)cs2)c(-c2cc(-c3n[nH]c(=O)o3)cnc2OCCC2CCCN2C)cn1 (centres unmarked) [Example 224]	94
CCNC(=O)Nc1cc(-c2nc(C(F)(F)F)cs2)c(-c2cc(-c3n[nH]c(=O)o3)cnc2OC[C@@H](C)O)cn1 [Example 225]	117
CCNC(=O)Nc1cc(-c2nc(C(F)(F)F)cs2)c(-c2cc(-c3n[nH]c(=O)o3)cnc2OC[C@H](C)O)cn1 [Example 226]	109
CCNC(=O)Nc1cc(-c2nc(C(F)(F)F)cs2)c(-c2cc(-c3n[nH]c(=O)o3)cnc2OC2C[C@H]3CC[C@@H](C2)N3C)cn1 (some centres unmarked) [Example 227]	100
CCNC(=O)Nc1cc(-c2nc(C(F)(F)F)cs2)c(-c2ccnc(-c3nnc(C)o3)c2)cn1 [Example 228]	93
CCNC(=O)Nc1cc(-c2nnc(-c3ccccc3)o2)c(-c2ccnc(-c3nnc(C)o3)c2)cn1 [Example 229]	99
CCNC(=O)Nc1cc(-c2nnc(-c3ccccc3)o2)c(-c2ncc(-c3nnc(C)o3)s2)cn1 [Example 230]	91
CCNC(=O)Nc1cc(-c2nc(-c3cnn(C)c3)cs2)c(-c2cc(-c3nnc(C)o3)cnc2OC2CCOCC2)cn1 [Example 231, 1-ethyl-3-(5′-(5-methyl-1,3,4-oxadiazol-2-yl)-4-(4-(1-methyl-1H-pyrazol-4-yl)thiazol-2-yl)-2′-(tetrahydro-2H-pyran-4-yloxy)-3,3′-bipyridin-6-yl)urea]	96
CCNC(=O)Nc1cc(-c2nc(-c3cccnc3OCCOC)cs2)c(-c2cc(-c3nnc(C)o3)cnc2OC2CCOCC2)cn1 [Example 232, 1-ethyl-3-(4-(4-(2-(2-methoxyethoxy)pyridin-3-yl)thiazol-2-yl)-5′-(5-methyl-1,3,4-oxadiazol-2-yl)-2′-(tetrahydro-2H-pyran-4-yloxy)-3,3′-bipyridin-6-yl)urea]	99

SMILES	inhibition at 1 µM [%]
CCNC(=O)Nc1cc(-c2nc(-c3cnn(C)c3)cs2)c(-c2cncc(-c3nnc(C)o3)c2)cn1 [Example 233, 1-ethyl-3-(5′-(5-methyl-1,3,4-oxadiazol-2-yl)-4-(4-(1-methyl-1H-pyrazol-4-yl)thiazol-2-yl)-3,3′-bipyridin-6-yl)urea]	100
CCNC(=O)Nc1cc(-c2nc(C(F)(F)F)cs2)c(-c2cc(-c3nnc(C)o3)cnc2OCC2CC2)cn1 [Example 234, 1-(2′-(cyclopropylmethoxy)-5′-(5-methyl-1,3,4-oxadiazol-2-yl)-4-(4-(trifluoromethyl)thiazol-2-yl)-3,3′-bipyridin-6-yl)-3-ethylurea]	105
CCNC(=O)Nc1cc(-c2nc(C3CCCC3)cs2)c(-c2cncc(-c3nnc(C)o3)c2)cn1 [Example 235, 1-(4-(4-cyclopentylthiazol-2-yl)-5′-(5-methyl-1,3,4-oxadiazol-2-yl)-3,3′-bipyridin-6-yl)-3-ethylurea]	101
CCNC(=O)Nc1cc(-c2nc(C3CCCCC3)cs2)c(-c2cncc(-c3nnc(C)o3)c2)cn1 [Example 236, 1-(4-(4-cyclohexylthiazol-2-yl)-5′-(5-methyl-1,3,4-oxadiazol-2-yl)-3,3′-bipyridin-6-yl)-3-ethylurea]	109
CCNC(=O)Nc1cc(-c2nc(C(F)(F)F)cs2)c(-c2cncc(-c3nnc([C@H](C)O)o3)c2)cn1 [Example 237, (S)-1-ethyl-3-(5′-(5-(1-hydroxyethyl)-1,3,4-oxadiazol-2-yl)-4-(4-(trifluoromethyl)thiazol-2-yl)-3,3′-bipyridin-6-yl)urea]	110
CCNC(=O)Nc1cc(-c2nc(C(F)(F)F)cs2)c(-c2cncc(-c3nnc([C@@H](N)C4CCCCC4)o3)c2)cn1 [Example 238, (S)-1-(5′-(5-(amino(cyclohexyl)methyl)-1,3,4-oxadiazol-2-yl)-4-(4-(trifluoromethyl)thiazol-2-yl)-3,3′-bipyridin-6-yl)-3-ethylurea]	96
CCNC(=O)Nc1cc(-c2nc(C(F)(F)F)cs2)c(-c2cncc(-c3nnc([C@@H]4COCCN4)o3)c2)cn1 [Example 239, (S)-1-ethyl-3-(5′-(5-(morpholin-3-yl)-1,3,4-oxadiazol-2-yl)-4-(4-(trifluoromethyl)thiazol-2-yl)-3,3′-bipyridin-6-yl)urea]	94
CCNC(=O)Nc1cc(-c2nc(C(F)(F)F)cs2)c(-c2cncc(-c3nnc([C@H]4COCCN4)o3)c2)cn1 [Example 240, (R)-1-ethyl-3-(5′-(5-(morpholin-3-yl)-1,3,4-oxadiazol-2-yl)-4-(4-(trifluoromethyl)thiazol-2-yl)-3,3′-bipyridin-6-yl)urea]	95
CCNC(=O)Nc1cc(-c2nc(C(F)(F)F)cs2)c(-c2ccnc(-c3nnc([C@@H](N)C4CCCCC4)o3)c2)cn1 [Example 241, (S)-1-(2′-(5-(amino(cyclohexyl)methyl)-1,3,4-oxadiazol-2-yl)-4-(4-(trifluoromethyl)thiazol-2-yl)-3,4′-bipyridin-6-yl)-3-ethylurea]	97
CCNC(=O)Nc1cc(-c2nc(C(F)(F)F)cs2)c(-c2ccnc(-c3nnc([C@@H]4COCCN4)o3)c2)cn1 [Example 242, (S)-1-ethyl-3-(2′-(5-(morpholin-3-yl)-1,3,4-oxadiazol-2-yl)-4-(4-(trifluoromethyl)thiazol-2-yl)-3,4′-bipyridin-6-yl)urea]	118
CCNC(=O)Nc1cc(-c2nc(C(F)(F)F)cs2)c(-c2ccnc(-c3nnc([C@H]4COCCN4)o3)c2)cn1 [Example 243, (R)-1-ethyl-3-(2′-(5-(morpholin-3-yl)-1,3,4-oxadiazol-2-yl)-4-(4-(trifluoromethyl)thiazol-2-yl)-3,4′-bipyridin-6-yl)urea]	122
CCNC(=O)Nc1cc(-c2nc(C(F)(F)F)cs2)c(-c2ccnc(-c3nnc([C@@H](NC)C(C)C)o3)c2)cn1 [Example 244, (S)-1-ethyl-3-(2′-(5-(2-methyl-1-(methylamino)propyl)-1,3,4-oxadiazol-2-yl)-4-(4-(trifluoromethyl)thiazol-2-yl)-3,4′-bipyridin-6-yl)urea]	96
CCNC(=O)Nc1cc(-c2nc(-c3cccc(OC)n3)cs2)c(-c2cncc(S(N)(=O)=O)c2)cn1 [Example 247, 6′-(3-ethylureido)-4′-(4-(6-methoxypyridin-2-yl)thiazol-2-yl)-3,3′-bipyridine-5-sulfonamide]	100
CCNC(=O)Nc1cc(-c2nc(-c3cccc(OC)n3)cs2)c(-c2ccnc(-c3n[nH]c(=O)o3)c2)cn1 [Example 248, 1-ethyl-3-(4-(4-(6-methoxypyridin-2-yl)thiazol-2-yl)-2′-(5-oxo-4,5-dihydro-1,3,4-oxadiazol-2-yl)-3,4′-bipyridin-6-yl)urea]	104
CCNC(=O)Nc1cc(-c2nc(-c3cccc(OC)n3)cs2)c(-c2ccnc(-c3nnc(C)o3)c2)cn1 [Example 249, 1-ethyl-3-(4-(4-(6-methoxypyridin-2-yl)thiazol-2-yl)-2′-(5-methyl-1,3,4-oxadiazol-2-yl)-3,4′-bipyridin-6-yl)urea]	97
CCNC(=O)Nc1cc(-c2nc(-c3cccc(OC)n3)cs2)c(-c2cncc(-c3nnc(C)o3)c2)cn1 [Example 250, 1-ethyl-3-(4-(4-(6-methoxypyridin-2-yl)thiazol-2-yl)-5′-(5-methyl-1,3,4-oxadiazol-2-yl)-3,3′-bipyridin-6-yl)urea]	101
CCNC(=O)Nc1cc(-c2nc(-c3cccc(OC)n3)cs2)c(-c2nc(-c3ncnn3C)c(-c3n[nH]c(=O)o3)s2)cn1 [Example 251, 1-ethyl-3-(4-(4-(6-methoxypyridin-2-yl)thiazol-2-yl)-5-(4-(1-methyl-1H-1,2,4-triazol-5-yl)-5-(5-oxo-4,5-dihydro-1,3,4-oxadiazol-2-yl)thiazol-2-yl)pyridin-2-yl)urea]	99
CCNC(=O)Nc1cc(-c2nc(-c3cccc(OC)n3)cs2)c(-c2nc(-c3ncnn3C)c(-c3nnc(C)o3)s2)cn1 [Example 252, 1-ethyl-3-(4-(4-(6-methoxypyridin-2-yl)thiazol-2-yl)-5-(5-(5-methyl-1,3,4-oxadiazol-2-yl)-4-(1-methyl-1H-1,2,4-triazol-5-yl)thiazol-2-yl)pyridin-2-yl)urea]	99
CCNC(=O)Nc1cc(-c2nc(C(F)(F)F)cs2)c(-c2cnc(OCCOC)c(-c3n[nH]c(=O)o3)c2)cn1 [Example 254]	97
